Data as given in patent US20100204145A1, “USE OF A PEPTIDE AS A THERAPEUTIC AGENT” (priority 2007, published 2010).
Ends that are not written are not given here.

Experiments:
HIV-1IIIB = assay: HIV-1 antiviral assay in CEM-SS cells (MTS readout); assay type: cell-based; conditions: positive controls
RAW 264.7 cells = assay: Phagocytosis assay (Fluorescein-labeled Escherichia coli, flow cytometry); assay type: cell-based, Mouse; conditions: 10 micrograms per ml, combination peptide 1:peptide 2 1.10 mole:0.90 mole
Human A549 cells = assay: Apoptosis prevention assay (C2 ceramide, Annexin-5); assay type: cell-based; conditions: 10 micrograms per ml, 30 min pretreatment, then C2 ceramide
[1] = system: Tumor Necrosis Factor-α (TNF-α); assay: Th1/Th2 cytokine profiling assay, TNF-α; assay type: cell-based; conditions: 10 micrograms per ml; Ovalbumin-restimulated spleen cells of immunized Balb/c mice; 72 hours
Excerpt: (§1) The Balb/c mice (originated in 1923, it is a popular strain and is used in many different research disciplines. Also classified as an inbred from the production of 20 or more successive brother-sister matings, the Balb/c mouse is albino and small in size) were immunized on Days 1, 15, and 29 with Ovalbumin (Ovalbumin is the main protein found in egg white, commonly used to stimulate an immunological reaction in test animals) in PBS (5 micrograms/injection). On day 50, spleens of the mice were harvested (3 weeks after last boost with Ovalbumin). […] Thereafter, additional Ovalbumin was added to the cells at 10 micrograms/ml for in vitro restimulation of the cells. 72 hours later, cell supernatants were harvested and assayed using the Becton Dickinson Mouse Th1/Th2 Cytokine CBA Kit.

Interferon-γ (IFN-γ) = assay: Th1/Th2 cytokine profiling assay, IFN-γ; assay type: cell-based; conditions: 10 micrograms per ml; Ovalbumin-restimulated spleen cells of immunized Balb/c mice; 72 hours
Excerpt: as §1

Interleukin-2 (IL-2) = assay: Th1/Th2 cytokine profiling assay, IL-2; assay type: cell-based; conditions: 10 micrograms per ml; Ovalbumin-restimulated spleen cells of immunized Balb/c mice; 72 hours
Excerpt: (§2) The Balb/c mice (originated in 1923, it is a popular strain and is used in many different research disciplines. Also classified as an inbred from the production of 20 or more successive brother-sister matings, the Balb/c mouse is albino and small in size) were immunized on Days 1, 15, and 29 with Ovalbumin (Ovalbumin is the main protein found in egg white, commonly used to stimulate an immunological reaction in test animals) in PBS (5 micrograms/injection). On day 50, spleens of the mice were harvested (3 weeks after last boost with Ovalbumin). […] Thereafter, additional Ovalbumin was added to the cells at 10 micrograms/ml for in vitro restimulation of the cells. 72 hours later, cell supernatants were harvested and assayed using the Becton Dickinson Mouse Th1/Th2 Cytokine CBA Kit. This kit can be used to measure Interleukin-2 (IL-2), Interleukin-4 (IL-4), Interleukin-5 (IL-5), Interferon-γ (IFN-γ), and Tumor Necrosis Factor-α (TNF-α) protein levels in a single sample. The kit performance has been optimized for analysis of physiologically relevant concentrations (μg/ml levels) of specific cytokine proteins in tissue culture supernatants and serum samples.

Interleukin-4 (IL-4) = assay: Th1/Th2 cytokine profiling assay, IL-4; assay type: cell-based; conditions: 10 micrograms per ml; Ovalbumin-restimulated spleen cells of immunized Balb/c mice; 72 hours
Excerpt: as §2

Interleukin-5 (IL-5) = assay: Th1/Th2 cytokine profiling assay, IL-5; assay type: cell-based; conditions: 10 micrograms per ml; Ovalbumin-restimulated spleen cells of immunized Balb/c mice; 72 hours
Excerpt: as §2

Molecule	antiviral activity of positive control compounds (HIV-1) (HIV-1IIIB)	increase on the phagocytic activity of murine macrophages (RAW 264.7 cells)	prevention (reduction) of ceramide-induced apoptosis on human lung cells (Human A549 cells)	TNF-a spleen cells; TH1 response (% of control) [1]	IFNγ spleen cells; TH1 response (% of control) (Interferon-γ (IFN-γ))	IL-2 spleen cells (% of control) (Interleukin-2 (IL-2))	IL-4 spleen cells; TH2 response (% of control) (Interleukin-4 (IL-4))	IL-5 spleen cells; TH2 response (% of control) (Interleukin-5 (IL-5))
Cc1cn([C@H]2C[C@H](N=[N+]=[N-])[C@@H](CO)O2)c(=O)[nH]c1=O [AZT]	expected levels of antiviral activity	–	–	–	–	–	–	–
CC(C)(C)NC(=O)[C@@H]1CN(Cc2cccnc2)CCN1C[C@@H](O)C[C@@H](Cc1ccccc1)C(=O)N[C@H]1c2ccccc2C[C@H]1O [indinavir]	expected levels of antiviral activity	–	–	–	–	–	–	–
CCNC(=O)[C@@H]1CCCN1C(=O)[C@H](CCCNC(=N)N)NC(=O)[C@H](CC(C)C)NC(=O)[C@@H](COC(C)(C)C)NC(=O)[C@H](Cc1ccc(O)cc1)NC(=O)[C@H](CO)NC(=O)[C@H](Cc1c[nH]c2ccccc12)NC(=O)[C@H](Cc1cnc[nH]1)NC(=O)[C@@H]1CCC(=O)N1 [peptide 1, Pyr-His-Trp-Ser-Tyr-D-Ser(tBu)-Leu-Arg-Pro-NHEt]	–	31.4%	26.4%	121.2 % of control	76.6 % of control	175.3 % of control	131.6 % of control	80.4 % of control
Tyr-Gly-Gly-Phe-Leu-Arg-Arg-OH (YGGFLRR-OH) [peptide 2]	–	25.7%	11.5%	90.3 % of control	126.8 % of control	93.8 % of control	81.2 % of control	66.0 % of control
